# Assay results: patent US20050271676A1, “Inducing cellular immune responses to human immunodeficiency virus-1 using peptide and nucleic acid compositions” (Epimmune Inc., priority 1993, published 2005)
# pIC50: −log10 of the molar value. No end group written: not given here.
# How the values were obtained:
# [1] = target: HLA-A*3301 (Homo sapiens, UniProt P04439, A270S/D185E/E176V/E277Q/E87N/F33T/G231S/H175R/I121M/I218V/I322F/K168Q/K210R/L300P/L318F/M331R/P217A/Q86R/Q94H/R138Q/T323A/T345S/T97I/V358M/Y195H); assay: purified HLA class I binding assay, A*3301
# [2] = target: HLA-A*1101 (Homo sapiens, UniProt P04439, A114D/D185E/E176A/F33Y/L180Q/S129P/T187R); assay: purified HLA class I binding assay, A*1101
# [3] = target: HLA-A*3101 (Homo sapiens, UniProt P04439, A270S/D185E/E176V/E277Q/F33T/G231S/G80R/H175R/I121M/I218V/I322F/K168Q/L300P/L318F/M331R/P217A/Q94H/R138Q/T323A/T345S/T97I/V358M); assay: purified HLA class I binding assay, A*3101
# [4] = target: T1, HLA-A*0301 (Homo sapiens, UniProt P04439); assay: purified HLA class I binding assay, A*0301
# T1 construct: endogenous in cells; host or cells: GM3107
# [5] = target: T2, HLA-DRB1*1201 (DR5w12) (Homo sapiens, UniProt P01903+P01911, A100R/A169T/D57E/D86V/F55L/H45Y/K41T/L162R/M171V/P40S/Q125H/Q178H/Q39Y/Q99D/R42G/S66L/T262R/V114A/V67L/W38E/Y59H/Y61H/Y89S); assay: purified HLA class II binding assay, DRB1*1201 (DR5w12); conditions: for DR5w12 binding: HIV DR super motif peptides, unit not given
# T2 construct: endogenous in cells
# [6] = target: T3, HLA-DRB1*0802 (DR8w2) (Homo sapiens, UniProt P01903+P01911, A100R/A103L/A169T/F76Y/H45Y/I96F/K41T/L162R/M171V/P40S/Q125H/Q178H/Q39Y/Q99D/R218S/R42G/S66Y/V115G/W38E); assay: biochemical; type: binding
# T3 construct: endogenous in cells
# [7] = target: T4, HLA-DRB1*0701 (DR7) (Homo sapiens, UniProt P01903+P01911, A100R/A102G/A103Q/D57E/D86V/E43K/F76Y/K127E/L162R/M171V/P40G/Q125H/Q99D/R33Q/R42Y/R54Q/S133A/S66F/T210M/V115G/Y107V/Y59L/Y89S); assay: biochemical; type: binding
# T4 construct: endogenous in cells; host or cells: Pitout
# [8] = target: HLA-DRB1*1302 (DR6w19) (Homo sapiens, UniProt P01903+P01911, A100E/A169T/K41T/L162R/M171V/P40S/Q125H/Q178H/Q39Y/Q99D/R42S/S66N/T262R/V115G/W38E/Y61H); assay: purified HLA class II binding assay, DRB1*1302 (DR6w19); conditions: for DR6w19 binding: HIV DR super motif peptides, unit not given
# [9] = target: T5, HLA-DRB1*0301 (DR3) (Homo sapiens, UniProt P01903+P01911, A100K/A102G/A103R/A169T/F55Y/I96L/K41T/L162R/M171V/P40S/Q125H/Q178H/Q39Y/R42S/S66N/T106N/T262R/W38E/Y61H); assay: purified HLA class II binding assay, DRB1*0301 (DR3), pH 4.5; conditions: for DR3 binding: HIV DR super motif peptides, unit not given
# T5 construct: endogenous in cells; host or cells: MAT
# [10] = target: T6, HLA-DRB1*1101 (DR5w11) (Homo sapiens, UniProt P01903+P01911, A100R/A169T/A87E/I96F/K41T/L162R/M171V/P40S/Q125H/Q178H/Q39Y/Q99D/R42S/S66Y/T262R/V115G/W38E); assay: biochemical; type: binding
# T6 construct: endogenous in cells
# [11] = target: T7, HLA-DRB1*0401 (DR4w4) (Homo sapiens, UniProt P01903+P01911, A100K/A169T/F76Y/I96L/K127E/L162R/M171V/N62H/P40V/Q125Y/R42H/S133A/S149N/S66Y/V115G/V209L/W38E); assay: purified HLA class II binding assay, DRB1*0401 (DR4w4); conditions: for DR4w4 binding: HIV DR super motif peptides, unit not given
# T7 construct: endogenous in cells; host or cells: Preiss
# [12] = target: T8, HLA-DRB1*0901 (DR9) (Homo sapiens, UniProt P01903+P01911, A100R/A103E/D57H/D86V/F55Y/F60I/F76Y/I96F/K127E/L162R/M171V/P40D/Q125H/Q99R/R33Q/R42F/S133A/S66N/T210M/V115G/W38K/Y107V/Y59G/Y89S); assay: biochemical; type: binding
# T8 construct: endogenous in cells
# [13] = target: HLA-DRB1*0405 (DR4w15) (Homo sapiens, UniProt P01903+P01911, A100R/A169T/D86S/F76Y/I96L/K127E/L162R/M171V/N62H/P40V/Q125Y/R42H/S133A/S149N/S66Y/V115G/V209L/W38E); assay: purified HLA class II binding assay, DRB1*0405 (DR4w15)
# [14] = target: T9, HLA-DRB5*0101 (DR2w2β2) (Homo sapiens, UniProt P01903+Q30154); assay: biochemical; type: binding
# T9 construct: expressed in transfected cells
# [15] = target: T10, HLA-DRB1*1501 (DR2w2β1) (Homo sapiens, UniProt P01903+P01911); assay: purified HLA class II binding assay, DRB1*1501 (DR2w2β1); conditions: for DR2 wβ1 binding: HIV DR super motif peptides, unit not given
# T10 construct: expressed in transfected cells
# [16] = target: HLA-A*0101 (Homo sapiens, UniProt P04439, A114D/A174V/A182V/D101N/D185E/E176A/E190D/L180R/Q94H/R68K/S129P/T187R/V100A/V91M/W191G); assay: biochemical; type: binding
# [17] = target: HLA-B*5401 (Homo sapiens, UniProt P01889, A329T/C349S/D138N/D201E/E176V/E187T/E204Q/E69G/I76V/K202T/L119W/R155S/R180L/S121T/S35A/S48A/V127L/V306I/V36M/Y140L); assay: biochemical
# [18] = target: HLA-A*6801 (Homo sapiens, UniProt P04439, A269V/D185E/E176V/E277Q/E87N/F33Y/G231S/I121M/I166T/I218V/L180W/L300P/L318F/N151K/P208A/P217A/Q86R/R169H/T345S); assay: purified HLA class I binding assay, A*6801
# T7 sequence (P01903 26-254 partner, other chains not shown): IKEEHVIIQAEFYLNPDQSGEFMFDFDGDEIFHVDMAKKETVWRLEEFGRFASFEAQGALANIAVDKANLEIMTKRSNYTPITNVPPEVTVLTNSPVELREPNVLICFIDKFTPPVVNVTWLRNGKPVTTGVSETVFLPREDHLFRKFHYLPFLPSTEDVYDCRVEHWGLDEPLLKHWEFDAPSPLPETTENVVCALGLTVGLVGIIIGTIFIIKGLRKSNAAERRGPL
# T5 sequence (P01903 26-254 partner, other chains not shown): as above
# T6 sequence (P01903 26-254, other chains not shown): as the sequence (P01903 26-254 partner, other chains not shown) above
compound,measurement,setting,value
CC[C@H](C)[C@H](NC(=O)[C@H](Cc1ccccc1)NC(=O)[C@@H](NC(=O)[C@H](C)N)C(C)C)C(=O)N[C@@H](Cc1c[nH]cn1)C(=O)N[C@@H](CC(N)=O)C(=O)N[C@@H](Cc1ccccc1)C(=O)N[C@@H](CCCCN)C(=O)N[C@@H](CCCNC(=N)N)C(=O)O [1193.03],pIC50,[1],6.97
same,pIC50,[2],8.48
same,pIC50,[3],8.29
same,pIC50,[4],7.19
CC[C@H](C)[C@H](NC(=O)[C@H](C)NC(=O)[C@@H]1CCCN1C(=O)[C@@H](N)CO)C(=O)N[C@@H](Cc1ccccc1)C(=O)N[C@@H](CCC(N)=O)C(=O)N[C@@H](CO)C(=O)N[C@@H](CO)C(=O)N[C@@H](CCSC)C(=O)N[C@H](C(=O)N[C@@H](CCCCN)C(=O)N[C@H](C(=O)N[C@@H](CC(C)C)C(=O)N[C@@H](CCC(=O)O)C(=O)N1CCC[C@H]1C(=O)O)[C@@H](C)CC)[C@@H](C)O [Peptide 27.0344],pIC50,[5],< 4.70
same,pIC50,[6],5.49
same,pIC50,[7],7.17
same,pIC50,[8],7.89
same,pIC50,[9],< 4.70
same,pIC50,[10],6.13
same,pIC50,[11],5.45
same,pIC50,[12],7.48
same,pIC50,[13],6.96
CC(C)C[C@H](NC(=O)[C@H](CCCCN)NC(=O)[C@@H](NC(=O)[C@H](CC(C)C)NC(=O)[C@@H]1CCCN1C(=O)[C@@H]1CCCN1C(=O)[C@@H](NC(=O)[C@H](CC(N)=O)NC(=O)[C@@H](NC(=O)[C@H](Cc1ccccc1)NC(=O)[C@H](CCC(=O)O)NC(=O)[C@@H](N)Cc1c[nH]c2ccccc12)C(C)C)[C@@H](C)O)C(C)C)C(=O)N[C@@H](Cc1c[nH]c2ccccc12)C(=O)N[C@@H](Cc1ccc(O)cc1)C(=O)N[C@@H](CCC(N)=O)C(=O)O [Peptide 27.0354],pIC50,[5],5.87
same,pIC50,[6],6.46
same,pIC50,[7],7.82
same,pIC50,[8],7.05
same,pIC50,[14],8.68
same,pIC50,[11],7.55
same,pIC50,[12],7.41
same,pIC50,[13],7.70
CC[C@H](C)[C@H](NC(=O)[C@H](C)N)C(=O)N[C@@H](Cc1ccccc1)C(=O)N[C@@H](CCC(N)=O)C(=O)N[C@@H](CO)C(=O)N[C@@H](CO)C(=O)N[C@@H](CCSC)C(=O)N[C@H](C(=O)N[C@@H](CCCCN)C(=O)O)[C@@H](C)O [Peptide 966.01],pIC50,[1],4.01
same,pIC50,[2],8.00
same,pIC50,[3],4.92
same,pIC50,[4],8.00
CC[C@H](C)[C@H](NC(=O)CNC(=O)[C@H](CCCCN)NC(=O)[C@H](Cc1c[nH]cn1)NC(=O)[C@H](C)NC(=O)[C@@H]1CCCN1C(=O)[C@@H](NC(=O)[C@H](Cc1c[nH]c2ccccc12)NC(=O)[C@H](C)NC(=O)[C@H](CC(C)C)NC(=O)[C@H](Cc1ccc(O)cc1)NC(=O)[C@@H](NC(=O)[C@@H](N)CCCCN)C(C)C)C(C)C)C(=O)NCC(=O)NCC(=O)O [Peptide 1280.03],pIC50,[5],4.90
same,pIC50,[8],5.60
same,pIC50,[14],7.62
same,pIC50,[9],< 4.70
same,pIC50,[10],7.15
same,pIC50,[12],6.60
same,pIC50,[15],7.60
ASGYIEAEVIPAFTG,DR5w12 binding,[5],−0.0045
same,DR8w2 binding,[6],−0.0003
same,DR7 binding,[7],0.0710
same,DR6w19 binding,[8],0.0400
same,DR2w2β2 binding,[14],−0.0021
same,DR3 binding,[9],−0.0043
same,DR5w11 binding,[10],0.0020
same,DR4w4 binding,[11],0.2300
same,DR9 binding,[12],0.0320
same,DR2 wβ1 binding,[15],−0.0003
EVNIVTDSQY [Peptide 1.0431],pIC50,[16],6.33
HSNWRAMASDFNLPP [Peptide 27.0364],pIC50,[5],< 4.70
same,pIC50,[6],5.71
same,pIC50,[7],6.33
same,pIC50,[8],5.36
same,pIC50,[9],< 4.70
same,pIC50,[10],7.02
same,pIC50,[11],7.96
same,pIC50,[12],6.06
same,pIC50,[15],< 4.70
same,pIC50,[13],7.82
IKKEKVYLA,DR8w2 binding information,[6],−0.0015
same,DR7 binding information,[7],−0.0005
same,DR6w19 binding information,"[8]; Table XXb, HIV DR 3a motif peptides",−0.0003
same,DR9 binding information,[12],0.0011
ILKEVYIIGVY,A*0101 (binding information),[16],0.0017
IPIHYCAPA [1296.01],pIC50,[17],8.43
IVIWGKTPK [1193.0200],pIC50,[1],7.01
same,pIC50,[2],7.79
same,pIC50,[3],7.74
KIQNFRVYYR [1211.32],pIC50,[1],6.47
same,pIC50,[3],8.57
KLAGRWPVK [1069.44],pIC50,[1],4.14
same,pIC50,[3],6.30
same,pIC50,[18],4.10
same,pIC50,[4],8.07
LVAVIIVASGY,A*0101 (binding affinity ratio),[16],0.0390
same,A*0101 (binding information),[16],0.0390
NTPVFAIKK [1273.02],pIC50,[1],4.32
same,pIC50,[2],7.00
same,pIC50,[3],4.52
QHLLQLTVWGIKQLQ [Peptide 27.0297],pIC50,[6],6.04
same,pIC50,[7],7.36
same,pIC50,[8],6.46
same,pIC50,[14],6.16
same,pIC50,[9],< 4.70
same,pIC50,[15],7.68
QKEPPFLWMG,A*0101 (binding affinity ratio),[16],0.0004
QKQITKIQNFRVYYR [Peptide 27.0377],pIC50,[5],6.91
same,pIC50,[6],7.12
same,pIC50,[7],7.60
same,pIC50,[8],7.60
same,pIC50,[14],7.10
same,pIC50,[9],< 4.70
same,pIC50,[10],7.28
same,pIC50,[12],6.24
same,pIC50,[15],8.47
same,pIC50,[13],7.31
SPEVIFMFSALSEGA,DR5w12 binding,[5],−0.0045
same,DR8w2 binding,[6],0.0130
same,DR7 binding,[7],−0.0007
same,DR6w19 binding,[8],0.0007
same,DR2w2β2 binding,[14],0.0034
same,DR3 binding,[9],−0.0043
same,DR5w11 binding,[10],0.0075
same,DR4w4 binding,[11],0.1600
same,DR9 binding,[12],0.0130
same,DR2 wβ1 binding,[15],0.0280
TIKIGGQLK [1273.05],pIC50,[1],4.44
same,pIC50,[3],4.74
same,pIC50,[4],7.39
TTLFCASDAK [1273.07],pIC50,[1],4.84
same,pIC50,[2],7.56
same,pIC50,[3],5.02
same,pIC50,[4],6.92
VMIVWQVDR [Peptide 1273.08],pIC50,[1],8.28
same,pIC50,[2],6.56
same,pIC50,[3],8.42
VTVLDVGDAY [Peptide 1069.26],pIC50,[16],6.36
